Values quoted from earlier work in patent US7329656B2, “Arylthiobenzylpiperidine derivatives” (H. Lundbeck A/S, priority 2004, dated 2008).
Where two headings read alike, the source gives them in different places.

How the values were obtained:
guinea pig = guinea pig maternal-separation vocalization
rat [1] = settings: rat forced-swim
rat [2] = settings: rat social interaction

COCC1=C(C(=O)OC)[C@H](c2ccc(F)c(F)c2)N(C(=O)NCCCN2CCC(c3cccc(NC(C)=O)c3)CC2)C(=O)N1 [SNAP-7941]
behavioral profile in model of depression and/or anxiety (guinea pig): profile similar to clinically used anti-depressants and anxiolytics | behavioral profile in model of depression and/or anxiety (rat [1]): profile similar to clinically used anti-depressants and anxiolytics | behavioral profile in model of depression and/or anxiety (rat [2]): profile similar to clinically used anti-depressants and anxiolytics
